Values quoted from earlier work in patent US20260166148A1, “MAGNETOSTRICTIVE PIEZOELECTRIC NANOASSEMBLY AS CANCER CHEMOTHERAPEUTIC” (GRANT DEMARTINO INDUSTRIES LLC, priority 2021, published 2026).

What was measured:
[1] = as studied by Jun Yang et al. [18]

| water solubility [1] | SMILES | IC50 values in human tumor cells (human tumor cells; when activated (photosensitizer irradiated)) | apoptosis induction, killing the cells (cellular effect) (human tumor cells; when activated, human tumor cells) |
| --- | --- | --- | --- |
|  | COc1ccc(C2=[N+]3C(=Nc4c(-c5ccccc5)c(Br)c(-c5ccc(OC)cc5)n4[B-]3(F)F)C(c3ccccc3)=C2Br)cc1 [ADPM06] | micromolar range | induces apoptosis |
| excellent | CC(C)(N=NC(C)(C)C1=NCCN1)C1=NCCN1.Cl.Cl [AIPH, 2,2′-Azobis(2-(2-imidazolin-2-yl)propane) dihydrochloride] |  |  |
